Experimental data: the NIST ThermoML archive (doi:10.1021/je700140j)

Experiment: refractive index (Na D-line) (dimensionless); xn = mol fraction of the nth substance listed
Conditions: 100.8 kPa, Liquid, Standard Abbe refractometry

OCCc1ccccc1 [2-phenylethanol] + CC(C)O
refractive index
Conditions	298.15 K	308.15 K	318.15 K
x2 = 0	1.53269	1.52852	1.52427
x2 = 0.05	1.52795	1.52391	1.51972
x2 = 0.1	1.523	1.51896	1.51478
x2 = 0.15	1.5178	1.51375	1.50956
x2 = 0.2	1.51235	1.50826	1.50405
x2 = 0.25	1.50661	1.50253	1.49832
x2 = 0.3	1.50063	1.49652	1.49228
x2 = 0.35	1.49437	1.49025	1.48598
x2 = 0.4	1.4878	1.48365	1.47938
x2 = 0.45	1.48091	1.47673	1.47245
x2 = 0.5	1.47367	1.4695	1.46522
x2 = 0.55	1.46611	1.46193	1.45763
x2 = 0.6	1.45816	1.45395	1.44964
x2 = 0.65	1.44975	1.44553	1.4412
x2 = 0.7	1.44087	1.43664	1.4323
x2 = 0.75	1.43149	1.42725	1.4229
x2 = 0.8	1.42156	1.41733	1.41297
x2 = 0.85	1.411	1.40678	1.40239
x2 = 0.9	1.39973	1.39547	1.39112
x2 = 0.95	1.38776	1.38342	1.37903

OCCc1ccccc1 [2-phenylethanol] + OCc1ccccc1
refractive index
Conditions	298.15 K	308.15 K	318.15 K
x2 = 0	1.53269	1.52852	1.52427
x2 = 0.05	1.53322	1.52911	1.52495
x2 = 0.1	1.53367	1.52961	1.52549
x2 = 0.15	1.5341	1.53006	1.52594
x2 = 0.2	1.53454	1.5305	1.52636
x2 = 0.25	1.53495	1.53089	1.52674
x2 = 0.3	1.53532	1.53125	1.5271
x2 = 0.35	1.53568	1.53159	1.52745
x2 = 0.4	1.53601	1.53193	1.52777
x2 = 0.45	1.53633	1.53225	1.52809
x2 = 0.5	1.53663	1.53255	1.52839
x2 = 0.55	1.53689	1.53281	1.52864
x2 = 0.6	1.53712	1.53304	1.52888
x2 = 0.65	1.53733	1.53325	1.5291
x2 = 0.7	1.53752	1.53344	1.52929
x2 = 0.75	1.53772	1.53362	1.52947
x2 = 0.8	1.53789	1.53377	1.52961
x2 = 0.85	1.53804	1.53391	1.52973
x2 = 0.9	1.53819	1.53403	1.52984
x2 = 0.95	1.53833	1.53414	1.52993

OCc1ccccc1 [benzenemethanol] + CC(C)O
refractive index
Conditions	298.15 K	308.15 K	318.15 K
x2 = 0	1.53843	1.53421	1.52994
x2 = 0.05	1.53277	1.52858	1.52435
x2 = 0.1	1.52684	1.52268	1.51849
x2 = 0.15	1.5207	1.51654	1.51233
x2 = 0.2	1.5143	1.51019	1.50598
x2 = 0.25	1.50772	1.50359	1.49935
x2 = 0.3	1.50089	1.49674	1.4925
x2 = 0.35	1.49383	1.48966	1.48542
x2 = 0.4	1.48652	1.48234	1.47809
x2 = 0.45	1.47899	1.4748	1.47053
x2 = 0.5	1.47118	1.46698	1.46269
x2 = 0.55	1.4631	1.45889	1.45458
x2 = 0.6	1.45472	1.4505	1.44616
x2 = 0.65	1.44605	1.44182	1.43746
x2 = 0.7	1.43707	1.43283	1.42848
x2 = 0.75	1.42774	1.4235	1.41916
x2 = 0.8	1.41804	1.4138	1.40943
x2 = 0.85	1.40795	1.40368	1.39933
x2 = 0.9	1.39746	1.39319	1.38883
x2 = 0.95	1.38648	1.38219	1.3778
